In ChEMBL document CHEMBL4330113, “Discovery of new quinazoline derivatives as irreversible dual EGFR/HER2 inhibitors and their anticancer activities - Part 1” (Bioorg Med Chem Lett, 2019):

What was measured:
NCI-H1975 [1] = assay: cells; conditions: Homo sapiens, NCI-H1975, 72 h
HCC827 = assay: cells; conditions: Homo sapiens, HCC827, 72 h
A-431 = assay: cells; conditions: Homo sapiens, A-431, 72 h
MDA-MB-453 = assay: Antiproliferative activity against human MDA-MB-453 cells after 72 hrs by CCK8 assay; type: functional, cell-based; conditions: MDA-MB-453, 72 h
NCI-H1975 [2] = assay: Antitumor activity against human NCI-H1975 cells harboring EGFR T790M mutant xenografted in BALB/c mouse assessed as tumor growth inhibition at 20 mg/kg, po administered daily via gavage for 14 days measured at 7 days post last dose relative to control; type: functional
[3] = Oral bioavailability in Sprague-Dawley rat at 10 mg/kg; type: ADME, organism-based; conditions: in vivo
NCI-H1975 [4] = assay: Antitumor activity against human NCI-H1975 cells harboring EGFR T790M mutant xenografted in BALB/c mouse assessed as tumor growth inhibition at 80 mg/kg, po administered every other day via gavage for 14 days measured at 7 days post last dose relative to control; type: functional
[5] = Half life in Sprague-Dawley rat at 5 mg/kg, iv or 10 mg/kg, po; type: ADME, organism-based; conditions: in vivo
[6] = Tmax in Sprague-Dawley rat at 5 mg/kg, iv or 10 mg/kg, po; type: ADME, organism-based; conditions: in vivo
NCI-H1975 [7] = assay: Antitumor activity against human NCI-H1975 cells harboring EGFR T790M mutant xenografted in BALB/c mouse assessed as tumor growth inhibition at 20 mg/kg, po administered every other day via gavage for 14 days measured at 7 days post last dose relative to control; type: functional
[8] = Cmax in Sprague-Dawley rat at 5 mg/kg, iv or 10 mg/kg, po; type: ADME, organism-based; conditions: in vivo
NCI-H1975 [9] = assay: Antitumor activity against human NCI-H1975 cells harboring EGFR T790M mutant xenografted in BALB/c mouse assessed as tumor growth inhibition at 5 mg/kg, po administered daily via gavage for 14 days measured at 7 days post last dose relative to control; type: functional
[10] = target: Epidermal growth factor receptor (Homo sapiens, UniProt P00533); assay: Inhibition of recombinant human GST-tagged EGFR catalytic domain (668 to 1210 residues) expressed in baculovirus expression system using TK-biotin peptide as substrate measured after 10 mins by HTRF assay
Chain of Epidermal growth factor receptor (P00533 whole entry, the tested form may be a part): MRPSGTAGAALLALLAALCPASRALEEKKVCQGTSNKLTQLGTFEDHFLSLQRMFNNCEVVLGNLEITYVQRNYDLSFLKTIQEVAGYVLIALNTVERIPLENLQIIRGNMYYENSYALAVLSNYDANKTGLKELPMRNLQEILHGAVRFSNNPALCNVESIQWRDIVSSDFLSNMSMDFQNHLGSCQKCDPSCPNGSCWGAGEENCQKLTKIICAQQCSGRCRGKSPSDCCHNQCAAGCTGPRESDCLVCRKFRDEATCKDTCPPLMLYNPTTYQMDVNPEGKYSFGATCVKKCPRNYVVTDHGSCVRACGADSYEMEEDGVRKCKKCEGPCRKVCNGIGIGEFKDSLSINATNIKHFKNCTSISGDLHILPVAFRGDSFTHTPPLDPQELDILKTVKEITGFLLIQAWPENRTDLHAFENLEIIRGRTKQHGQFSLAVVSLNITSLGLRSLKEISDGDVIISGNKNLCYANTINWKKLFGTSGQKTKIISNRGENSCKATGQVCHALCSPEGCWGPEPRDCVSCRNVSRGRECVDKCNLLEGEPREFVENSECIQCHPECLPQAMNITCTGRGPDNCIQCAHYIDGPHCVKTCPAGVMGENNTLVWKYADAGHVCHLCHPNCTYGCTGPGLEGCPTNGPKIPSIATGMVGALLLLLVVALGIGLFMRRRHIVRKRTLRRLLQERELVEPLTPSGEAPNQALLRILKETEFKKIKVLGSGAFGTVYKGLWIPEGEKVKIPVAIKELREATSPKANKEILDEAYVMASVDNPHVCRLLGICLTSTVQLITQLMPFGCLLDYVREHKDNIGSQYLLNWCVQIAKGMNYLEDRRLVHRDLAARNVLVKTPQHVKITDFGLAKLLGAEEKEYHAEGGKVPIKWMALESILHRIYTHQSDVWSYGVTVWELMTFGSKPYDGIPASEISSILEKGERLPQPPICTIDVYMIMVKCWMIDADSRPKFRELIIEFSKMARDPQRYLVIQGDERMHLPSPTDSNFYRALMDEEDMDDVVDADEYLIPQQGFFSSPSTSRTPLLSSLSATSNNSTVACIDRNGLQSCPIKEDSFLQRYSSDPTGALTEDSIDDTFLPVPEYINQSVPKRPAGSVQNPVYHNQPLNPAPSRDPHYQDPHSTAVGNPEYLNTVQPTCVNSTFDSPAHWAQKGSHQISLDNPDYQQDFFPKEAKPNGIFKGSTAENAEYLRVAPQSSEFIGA

NCI-H1975 [11] = assay: Antitumor activity against human NCI-H1975 cells harboring EGFR T790M mutant xenografted in po dosed BALB/c mouse assessed as tumor growth inhibition administered via gavage qd or qod for 14 days measured at 7 days post last dose; type: functional, organism-based

| SMILES | IC50 (NCI-H1975 [1]) | IC50 (HCC827) | IC50 (A-431) | IC50 (MDA-MB-453) | further results |
| --- | --- | --- | --- | --- | --- |
| CCOCCOc1cc2ncnc(Nc3ccc(F)c(Cl)c3)c2cc1NC(=O)/C=C/C(F)(F)F | 27.6 nM | 0.15 nM | 148 nM | 18.3 nM | – |
| CN(C)C/C=C/C(=O)Nc1cc2c(Nc3ccc(F)c(Cl)c3)ncnc2cc1O[C@H]1CCOC1 [AFATINIB] | – | – | – | – | inhibition in vivo at 20 mg/kg (NCI-H1975 [2]): 67.6% |
| CCOCCOc1cc2ncnc(Nc3ccc(F)c(Cl)c3)c2cc1NC(=O)/C=C/Cl | 7.43 nM | – | 289 nM | 14.9 nM | – |
| CCOCCOc1cc2ncnc(Nc3ccc(OCC(F)(F)F)c(Cl)c3)c2cc1NC(=O)/C=C/CN(C)C | 107 nM | 2.9 nM | 64.1 nM | 2.55 nM | – |
| CCOCCOc1cc2ncnc(Nc3ccc(F)c(Cl)c3)c2cc1NC(=O)/C=C/C(=O)OCC | 35.2 nM | 0.987 nM | 207 nM | 21.6 nM | – |
| CCOCCOc1cc2ncnc(Nc3ccc(F)c(Cl)c3)c2cc1NC(=O)/C=C/CN(C)C.O=C(O)/C=C\C(=O)O | – | – | – | – | bioavailability [3]: 70% |
| C=C(Br)C(=O)Nc1cc2c(Nc3ccc(F)c(Cl)c3)ncnc2cc1OCCOCC | 39.4 nM | 6.39 nM | 572 nM | 15.1 nM | – |
| C=C(Cl)C(=O)Nc1cc2c(Nc3ccc(F)c(Cl)c3)ncnc2cc1OCCOCC | 37.1 nM | 33.2 nM | 369 nM | 3.71 nM | – |
| CCOCCOc1cc2ncnc(Nc3ccc(OCc4cccc(F)c4)c(Cl)c3)c2cc1NC(=O)/C=C/CN(C)C | 49.7 nM | – | 79.5 nM | – | – |
| CCOCCOc1cc2ncnc(Nc3ccc(F)c(Cl)c3)c2cc1NC(=O)/C=C\C#N | 18.4 nM | 5.56 nM | 94.8 nM | 0.68 nM | – |
| COCCCOc1cc2ncnc(Nc3ccc(F)c(Cl)c3)c2cc1NC(=O)/C=C/CN(C)C | – | 0.29 nM | – | – | – |
| CCOCCOc1cc2ncnc(Nc3ccc(F)c(Cl)c3)c2cc1NC(=O)/C=C/CN(C)C [listing 2 of 2 here] | – | – | – | – | TGI (NCI-H1975 [11]): Dose-dependent effect |
| CCOCCOc1cc2ncnc(Nc3ccc(F)c(Cl)c3)c2cc1NC(=O)/C=C/Br | 8.21 nM | 4.86 nM | 297 nM | 3.99 nM | – |

The remaining compounds from weak to strong by IC50 (A-431), led by results:

| IC50 (NCI-H1975 [1]) | IC50 (HCC827) | IC50 (A-431) | IC50 (MDA-MB-453) | SMILES | further results |
| --- | --- | --- | --- | --- | --- |
| 72.5 nM | 0.53 nM | 54.5 nM | 58.2 nM | C=C(F)C(=O)Nc1cc2c(Nc3ccc(F)c(Cl)c3)ncnc2cc1OCCOCC | – |
| 49.9 nM | – | 43 nM | – | COC[C@@H](C)Oc1cc2ncnc(Nc3ccc(F)c(Cl)c3)c2cc1NC(=O)/C=C/CN(C)C | – |
| 1.6 nM | – | 24 nM | – | CCOCCOc1cc2ncnc(Nc3ccc(F)c(Cl)c3)c2cc1NC(=O)/C=C\Cl | – |
| 7.3 nM | 3.43 nM | 20.1 nM | 1.65 nM | CCOCCOc1cc2ncnc(Nc3ccc(OCCOC)c(Cl)c3)c2cc1NC(=O)/C=C/CN(C)C | – |
| 66.5 nM | – | 16.7 nM | – | COC[C@H](C)Oc1cc2ncnc(Nc3ccc(F)c(Cl)c3)c2cc1NC(=O)/C=C/CN(C)C | – |
| 6.17 nM | 0.34 nM | 13.7 nM | 2.52 nM | CCOCCOc1ccc(Nc2ncnc3cc(OCCOCC)c(NC(=O)/C=C/CN(C)C)cc23)cc1Cl | – |
| 49.3 nM | 1.46 nM | 11.4 nM | 3.42 nM | C#CC(=O)Nc1cc2c(Nc3ccc(F)c(Cl)c3)ncnc2cc1OCCOCC | – |
| – | 0.55 nM | 8.15 nM | – | CCCOCCOc1cc2ncnc(Nc3ccc(F)c(Cl)c3)c2cc1NC(=O)/C=C/CN(C)C | – |
| 65.6 nM | 0.53 nM | 6.48 nM | 12.7 nM | CCOCCOc1cc2ncnc(Nc3ccc(NCCS(C)(=O)=O)c(Cl)c3)c2cc1NC(=O)/C=C/CN(C)C | – |
| 51.8 nM | 0.15 nM | 6.01 nM | 5.67 nM | C=CC(=O)Nc1cc2c(Nc3ccc(F)c(Cl)c3)ncnc2cc1OCCOCC | – |
| – | 0.55 nM | 5.86 nM | – | CC(C)OCCOc1cc2ncnc(Nc3ccc(F)c(Cl)c3)c2cc1NC(=O)/C=C/CN(C)C | – |
| 13.7 nM | 3.95 nM | 3.37 nM | 130 nM | C=CS(=O)(=O)Nc1cc2c(Nc3ccc(F)c(Cl)c3)ncnc2cc1OCCOCC | – |
| – | 0.31 nM | 1.52 nM | 0.62 nM | CCOCCOc1cc2ncnc(Nc3ccc(F)c(Cl)c3)c2cc1NC(=O)/C=C/CN(C)C [listing 1 of 2 here] | inhibition in vivo at 80 mg/kg (NCI-H1975 [4]): 95.1%; half-life [5]: 6.8 h; Tmax [6]: 4 h; bioavailability [3]: 46%; inhibition in vivo at 20 mg/kg (NCI-H1975 [7]): 82%; Cmax [8]: 92.3 ng/mL; inhibition in vivo at 5 mg/kg (NCI-H1975 [9]): 73.2%; IC50 [10]: 0.69 nM |
